These results are taken from patent US10344060B2 (priority 2013, dated 2019).

Molecules are shown by their SMILES. pIC50: −log10 of the molar value.

Assay in all cases: cell-based
Test [1] concerns the target hNav1.3 (Homo sapiens, UniProt Q9NY46). To be noted: IonWorks Quattro; Table 6; read-out: IC50 (μM) Nav1.3.
The target of test [2] is T1, hNav1.7 (Homo sapiens, UniProt Q15858). Particulars: for IC50: read-out: IC50 (μM) Nav1.7.
Test [3] addresses hNav1.5 (Homo sapiens, UniProt Q14524). Particulars: IonWorks Quattro; Table 6; read-out: IC50 (μM) Nav1.5. A general note: In patch-clamp work, channel activity is measured electrically.
Test [4] addresses T2, hNav1.4 (Homo sapiens, UniProt P35499). The test is classed as cell-based. Particulars: Table 6; for IC50: IonWorks Quattro, read-out: IC50 (μM) Nav1.4; for Nav1.4/Nav1.7: ratio of IonWorks Quattro IC50 values.
Test [5] addresses hNav1.6 (Homo sapiens, UniProt Q9UQD0). In kind it is cell-based. Particulars: Table 15; read-out: PX hNav1.6 Tonic IC50.
Test [6] has as its target T2, hNav1.4. The test is classed as cell-based. To be noted: PX.
Test [7] concerns the target T1, hNav1.7. In kind it is cell-based. To be noted: ratio of PX tonic IC50 values; Table 11.

Sequence of hNav1.3 (Q9NY46 whole entry): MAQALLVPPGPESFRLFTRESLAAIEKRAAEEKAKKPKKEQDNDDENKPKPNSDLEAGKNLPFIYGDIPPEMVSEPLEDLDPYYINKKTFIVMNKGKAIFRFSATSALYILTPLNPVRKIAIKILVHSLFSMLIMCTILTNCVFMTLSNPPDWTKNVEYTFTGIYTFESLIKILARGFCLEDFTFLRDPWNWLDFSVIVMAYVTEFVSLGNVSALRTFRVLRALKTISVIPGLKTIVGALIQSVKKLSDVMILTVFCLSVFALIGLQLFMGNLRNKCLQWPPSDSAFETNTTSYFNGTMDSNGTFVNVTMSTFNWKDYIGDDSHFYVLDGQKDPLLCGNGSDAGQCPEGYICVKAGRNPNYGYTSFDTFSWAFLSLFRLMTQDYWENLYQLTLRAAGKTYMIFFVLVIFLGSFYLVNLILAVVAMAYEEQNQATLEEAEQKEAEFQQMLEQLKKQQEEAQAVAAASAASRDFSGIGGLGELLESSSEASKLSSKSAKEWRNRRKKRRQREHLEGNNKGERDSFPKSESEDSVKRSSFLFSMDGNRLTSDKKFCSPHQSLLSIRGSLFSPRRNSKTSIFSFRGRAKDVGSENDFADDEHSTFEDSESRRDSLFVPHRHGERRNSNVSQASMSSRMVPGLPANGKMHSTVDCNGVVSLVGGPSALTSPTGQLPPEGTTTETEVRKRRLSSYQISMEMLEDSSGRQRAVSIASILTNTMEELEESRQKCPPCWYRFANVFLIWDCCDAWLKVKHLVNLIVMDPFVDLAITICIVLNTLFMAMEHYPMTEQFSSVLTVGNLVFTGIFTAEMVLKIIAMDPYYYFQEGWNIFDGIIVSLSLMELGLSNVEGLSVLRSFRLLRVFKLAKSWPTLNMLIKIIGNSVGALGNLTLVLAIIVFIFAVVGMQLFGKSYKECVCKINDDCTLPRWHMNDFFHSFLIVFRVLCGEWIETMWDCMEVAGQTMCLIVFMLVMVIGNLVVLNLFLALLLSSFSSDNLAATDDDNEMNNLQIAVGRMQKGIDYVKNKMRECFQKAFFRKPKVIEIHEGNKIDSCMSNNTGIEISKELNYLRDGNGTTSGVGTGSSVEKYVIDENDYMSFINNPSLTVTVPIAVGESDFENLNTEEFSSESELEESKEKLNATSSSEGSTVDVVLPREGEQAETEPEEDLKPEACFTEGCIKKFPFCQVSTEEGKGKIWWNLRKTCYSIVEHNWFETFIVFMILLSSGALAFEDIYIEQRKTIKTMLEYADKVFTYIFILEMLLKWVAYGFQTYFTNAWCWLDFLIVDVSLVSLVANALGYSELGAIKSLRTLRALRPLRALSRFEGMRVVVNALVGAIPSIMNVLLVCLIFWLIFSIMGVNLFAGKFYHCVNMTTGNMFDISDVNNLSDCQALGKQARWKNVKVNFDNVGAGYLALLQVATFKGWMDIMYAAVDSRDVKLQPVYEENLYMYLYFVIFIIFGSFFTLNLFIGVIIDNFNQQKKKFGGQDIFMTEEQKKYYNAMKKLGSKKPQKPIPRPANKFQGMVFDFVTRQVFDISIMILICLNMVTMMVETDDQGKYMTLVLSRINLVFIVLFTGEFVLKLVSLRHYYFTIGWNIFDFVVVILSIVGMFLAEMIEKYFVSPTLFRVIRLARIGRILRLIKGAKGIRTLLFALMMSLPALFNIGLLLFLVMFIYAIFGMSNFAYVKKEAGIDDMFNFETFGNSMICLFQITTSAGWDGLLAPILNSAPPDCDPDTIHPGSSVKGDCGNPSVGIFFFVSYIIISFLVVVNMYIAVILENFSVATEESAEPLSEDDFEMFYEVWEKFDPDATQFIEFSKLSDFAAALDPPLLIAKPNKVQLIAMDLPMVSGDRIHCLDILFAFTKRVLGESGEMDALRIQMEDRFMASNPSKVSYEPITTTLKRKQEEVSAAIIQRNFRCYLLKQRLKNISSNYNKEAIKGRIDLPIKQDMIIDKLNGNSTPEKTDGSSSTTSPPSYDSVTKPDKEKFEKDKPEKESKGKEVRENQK
T1 sequence (Q15858 whole entry): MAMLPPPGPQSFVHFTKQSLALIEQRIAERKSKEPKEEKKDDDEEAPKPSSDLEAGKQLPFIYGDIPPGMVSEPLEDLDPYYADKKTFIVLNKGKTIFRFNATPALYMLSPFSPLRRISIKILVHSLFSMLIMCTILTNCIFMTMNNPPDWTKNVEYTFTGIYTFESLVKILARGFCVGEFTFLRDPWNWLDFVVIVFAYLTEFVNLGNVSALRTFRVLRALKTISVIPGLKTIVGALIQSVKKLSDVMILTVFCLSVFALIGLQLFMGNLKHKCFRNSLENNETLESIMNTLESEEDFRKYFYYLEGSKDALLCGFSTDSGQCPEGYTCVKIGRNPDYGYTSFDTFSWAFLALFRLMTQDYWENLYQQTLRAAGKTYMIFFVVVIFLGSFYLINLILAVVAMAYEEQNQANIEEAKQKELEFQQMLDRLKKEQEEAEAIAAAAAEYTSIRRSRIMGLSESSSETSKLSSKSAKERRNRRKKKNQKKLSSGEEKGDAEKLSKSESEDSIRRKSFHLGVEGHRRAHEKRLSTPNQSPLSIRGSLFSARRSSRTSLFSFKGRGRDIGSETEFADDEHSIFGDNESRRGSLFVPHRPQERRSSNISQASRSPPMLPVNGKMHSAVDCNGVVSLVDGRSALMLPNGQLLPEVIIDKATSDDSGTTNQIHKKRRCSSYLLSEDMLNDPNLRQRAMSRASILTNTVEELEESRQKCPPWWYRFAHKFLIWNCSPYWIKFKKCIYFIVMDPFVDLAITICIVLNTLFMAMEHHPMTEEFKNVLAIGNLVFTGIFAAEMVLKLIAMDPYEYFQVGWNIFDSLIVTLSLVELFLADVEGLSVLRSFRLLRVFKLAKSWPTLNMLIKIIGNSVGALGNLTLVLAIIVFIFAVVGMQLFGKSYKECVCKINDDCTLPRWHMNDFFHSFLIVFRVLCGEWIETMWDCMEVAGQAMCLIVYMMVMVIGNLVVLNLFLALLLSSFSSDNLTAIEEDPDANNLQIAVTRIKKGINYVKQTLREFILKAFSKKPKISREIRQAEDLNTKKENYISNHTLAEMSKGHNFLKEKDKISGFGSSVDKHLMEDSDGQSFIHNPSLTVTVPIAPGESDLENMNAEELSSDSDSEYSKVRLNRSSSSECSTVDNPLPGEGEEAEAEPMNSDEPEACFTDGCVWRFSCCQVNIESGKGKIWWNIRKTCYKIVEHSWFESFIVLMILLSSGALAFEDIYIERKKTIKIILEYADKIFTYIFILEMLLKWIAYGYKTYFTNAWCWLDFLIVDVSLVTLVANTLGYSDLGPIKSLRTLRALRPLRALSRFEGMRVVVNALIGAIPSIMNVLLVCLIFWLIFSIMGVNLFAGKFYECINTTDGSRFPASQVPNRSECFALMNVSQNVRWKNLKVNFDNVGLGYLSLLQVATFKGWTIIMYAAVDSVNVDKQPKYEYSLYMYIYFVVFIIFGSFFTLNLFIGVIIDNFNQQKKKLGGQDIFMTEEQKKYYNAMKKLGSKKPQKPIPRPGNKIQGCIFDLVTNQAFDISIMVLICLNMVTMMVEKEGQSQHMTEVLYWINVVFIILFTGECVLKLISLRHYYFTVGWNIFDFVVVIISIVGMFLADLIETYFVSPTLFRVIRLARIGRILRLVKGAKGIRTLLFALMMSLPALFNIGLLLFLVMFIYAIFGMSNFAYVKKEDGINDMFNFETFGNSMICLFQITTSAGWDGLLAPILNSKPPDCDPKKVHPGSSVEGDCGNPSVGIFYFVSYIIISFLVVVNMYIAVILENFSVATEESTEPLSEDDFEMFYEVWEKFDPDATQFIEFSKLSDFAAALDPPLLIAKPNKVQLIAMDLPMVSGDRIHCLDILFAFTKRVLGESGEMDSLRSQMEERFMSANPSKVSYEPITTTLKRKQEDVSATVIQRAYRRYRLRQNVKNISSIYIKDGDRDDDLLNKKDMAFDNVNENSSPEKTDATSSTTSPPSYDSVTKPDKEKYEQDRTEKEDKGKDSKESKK

One may read the IC50 as the concentration that inhibits the measured activity by half. A word on the pIC50: it is the IC50 on a negative log10 scale, so that one unit is a factor of ten. `CC[C@H](C)[C@H](NC(=O)[C@@H](NC(=O)[C@H](CCCCN)NC(=O)[C@H](CCCNC(=N)N)NC(=O)[C@@H]1CSSC[C@@H]2NC(=O)[C@H](C)NC(=O)[C@H](CCCNC(=N)N)NC(=O)[C@H](CCCCN)NC(=O)[C@H](CCC(=O)O)NC(=O)[C@H](CC(=O)O)NC(=O)[C@@H]3CSSC[C@H](NC(=O)[C@H](CCCNC(=N)N)NC(=O)[C@H](CC(C)C)NC(=O)CNC(=O)[C@H](CCC(=O)O)NC(=O)[C@H](CSSC[C@H](NC(=O)[C@@H](N)Cc4ccc(O)cc4)C(=O)N[C@@H](CCC(N)=O)C(=O)N[C@@H](CCCCN)C(=O)N[C@@H](Cc4c[nH]c5ccccc45)C(=O)N[C@@H](CCSC)C(=O)N[C@@H](Cc4c[nH]c5ccccc45)C(=O)N[C@@H]([C@@H](C)O)C(=O)N3)NC2=O)C(=O)N[C@@H](CCCCN)C(=O)N[C@@H](CC(C)C)C(=O)N[C@@H](Cc2c[nH]c3ccccc23)C(=O)N1)[C@@H](C)CC)C(N)=O` [compound 57]: the IC50 in test [1] was 0.19 µM; in test [2] it was 0.039 µM; in test [3] it was greater than 5 µM; in test [4], 0.38 µM. Further, the Nav1.4/Nav1.7 in test [4] is listed as 10. In addition, the pIC50 in test [5] is 6.70.
Turning to `CC[C@H](C)[C@H](NC(=O)[C@@H](NC(=O)[C@H](CCCCN)NC(=O)[C@H](CCCNC(=N)N)NC(=O)[C@@H]1CSSC[C@@H]2NC(=O)[C@H](C)NC(=O)[C@H](CCCNC(=N)N)NC(=O)[C@H](CCCCN)NC(=O)[C@H](CO)NC(=O)[C@H](CC(=O)O)NC(=O)[C@@H]3CSSC[C@H](NC(=O)[C@H](CCC(=O)O)NC(=O)[C@H](CC(C)C)NC(=O)CNC(=O)[C@H](CCC(=O)O)NC(=O)[C@H](CSSC[C@H](NC(=O)[C@@H](N)Cc4ccc(O)cc4)C(=O)N[C@@H](CCC(N)=O)C(=O)N[C@@H](CCCCN)C(=O)N[C@@H](Cc4c[nH]c5ccccc45)C(=O)N[C@@H](CCSC)C(=O)N[C@@H](Cc4c[nH]c5ccccc45)C(=O)N[C@@H]([C@@H](C)O)C(=O)N3)NC2=O)C(=O)N[C@@H](CCCCN)C(=O)N[C@@H](CC(C)C)C(=O)N[C@@H](Cc2c[nH]c3ccccc23)C(=O)N1)[C@@H](C)CC)C(N)=O` [compound 63], the 50% inhibitory concentration (IC50) in test [1] was 2.5 µM; in test [2], 0.073 µM; in test [3] it was greater than 5 µM; in test [4], 4.6 µM. Moreover, the Nav1.4/Nav1.7 in test [2] (ratio of IonWorks Quattro IC50 values, Nav1.4 over Nav1.7) is 14; in test [4], 63; in test [7] it was 179. Besides, the “selectivity against hNav1.4 relative to hNav1.7” value in test [6] is on record as “greater than 1000 fold”. In addition, the Nav1.5/Nav1.7 in test [7] is reported as 1333.
In the case of `CC[C@H](C)[C@H](NC(=O)[C@@H](NC(=O)[C@H](CCCCN)NC(=O)[C@H](CCCNC(=N)N)NC(=O)[C@@H]1CSSC[C@@H]2NC(=O)[C@H](C)NC(=O)[C@H](CCCNC(=N)N)NC(=O)[C@H](CCCCN)NC(=O)[C@H](CO)NC(=O)[C@H](CC(=O)O)NC(=O)[C@@H]3CSSC[C@H](NC(=O)[C@H](CCCNC(=N)N)NC(=O)[C@H](CC(C)C)NC(=O)CNC(=O)[C@H](CCC(=O)O)NC(=O)[C@H](CSSC[C@H](NC(=O)[C@@H](N)Cc4ccc(O)cc4)C(=O)N[C@@H](CCC(N)=O)C(=O)N[C@@H](CCCCN)C(=O)N[C@@H](Cc4c[nH]c5ccccc45)C(=O)N[C@@H](CCSC)C(=O)N[C@@H](Cc4cccc5ccccc45)C(=O)N[C@@H]([C@@H](C)O)C(=O)N3)NC2=O)C(=O)N[C@@H](CCCCN)C(=O)N[C@@H](CC(C)C)C(=O)N[C@@H](Cc2c[nH]c3ccccc23)C(=O)N1)[C@@H](C)CC)C(N)=O` [compound 30], the half-inhibitory concentration (IC50) in test [1] came out at 0.1 µM; in test [2], 0.013 µM; in test [3] it was 3.6 µM; in test [4], 0.12 µM. Besides, the Nav1.4/Nav1.7 in test [4] came out at 9; in test [7], 2. Further, the Nav1.5/Nav1.7 in test [7] came to 3550.
